In patent US20240132518A1, “CEPHALOSPORIN ANTIBACTERIAL COMPOUND AND PREPARATION METHOD THEREFOR” (priority 2021, published 2024):
Converted amounts (≈) assume the structure as drawn. Where two headings read alike, the source gives them in different places.

Key:
[1] = test system: Control strain (Escherichia coli) ATCC 25922; assay: Antibacterial MIC assay (ID-CAMHB), control strain Escherichia coli; type: cell-based; details: ATCC25922, ID-CAMHB, control strain ATCC 25922, read-out: MIC
Experimental: (§1) 1. The test compounds were dissolved in sterile normal saline, vortexed for uniformly mixing, and diluted in a 2-fold dilution with the sterile normal saline (11 concentration points in total). The test concentration range was 32-0.031 μg/mL, and two duplicate wells were set for each concentration. Additional wells without drug dosing were set as growth controls.
(§2) 2. 4 μL of the diluent was added to 196 μL of the bacterial suspension in a 96-well plate (the bacterial count in the bacterial suspension was 2-8×10^5 colony forming units/mL).
(§3) The minimum inhibitory concentration (MIC) assay was performed with reference to the Clinical and Laboratory Standards Institute (CLSI) guidelines.

[2] = Pharmacokinetic study in cynomolgus monkeys; type: in vivo; details: cynomolgus monkey, plasma, 10 mg/kg single intravenous infusion, individual animals
Experimental: An appropriate amount of a test compound was weighed precisely and added to a container, and 0.9% sodium chloride injection and 0.2 M NaOH solution were added thereto in an ice bath until the test compound was completely dissolved, so that a sample solution at a concentration of 2 mg/mL was obtained followed by storage at 2-8° C. for later use.
• Species and strain: cynomolgus monkey • Animal grade: general grade • Animal source: Guangxi Xiongsen Primate Experimental Animal Breeding Development Co., Ltd. • Number of the using of laboratory animal: SYXK (Su) 2019-0012
6 cynomolgus monkeys (half male and half female) were selected and randomly divided into 3 groups with 1 animal/sex in each group. The cynomolgus monkeys were administered with the test sample at a dose of 10 mg/kg by the single intravenous infusion. Blood samples were collected from each group of animals at the following time points: before administration, and 5 min, 15 min, 0.5 h, 1 h, 2 h, 4 h, 6 h, and 8 h after administration. In the test, the concentration of each test compound in the plasma of the cynomolgus monkey was detected by the LC-MS/MS method, and the lower limits of quantification of the analysis methods for the plasma samples were all 1 μg/mL. The plasma concentration data were analyzed by the non-compartmental analysis (NCA) of the analysis software for pharmacokinetic data, WinNonlin, pharmacokinetic parameters were calculated, and pharmacokinetic characteristics of the test compounds in cynomolgus monkeys after administration were investigated, with the results shown in the following table.

[3] = test system: Carbapenem-resistant Pseudomonas aeruginosa (CRPA); assay: Antibacterial MIC assay (ID-CAMHB), carbapenem-resistant Pseudomonas aeruginosa; type: cell-based
Experimental: as §1, §2, §3

[4] = test system: Carbapenem-resistant Acinetobacter baumannii (CRAB); assay: Antibacterial MIC assay (ID-CAMHB), carbapenem-resistant Acinetobacter baumannii; type: cell-based
Experimental: as §1, §2, §3

[5] = test system: Carbapenem-resistant Enterobacteriaceae (CRE, Klebsiella pneumoniae); assay: Antibacterial MIC assay (ID-CAMHB), carbapenem-resistant Enterobacteriaceae; type: cell-based
Experimental: as §1, §2, §3

[6] = Pharmacokinetic study in ICR mice; type: in vivo; details: plasma; for AUC(0-inf) / AUC(0-t) / Cmax / Tmax / half-life: both sexes, mouse, sc
Experimental: The formulation for administration was prepared on ice. A proper amount of the test compound was precisely weighed out, and a 90% volume of normal saline was slowly added. The mixture was ultrasonically stirred in an ice-water bath until no large pieces existed. After the mixture was well mixed, a 1 M NaOH solution was added in small portions using a pipette.
• Species and strain: ICR mice • Animal grade: SPF • Animal source: Medicilon: 999M-018
Administration by subcutaneous injection: 3 mice/sex/time point; blood samples were collected at 9 time points: 0.083 h, 0.25 h, 0.5 h, 1 h, 2 h, 4 h, 6 h, 8 h and 24 h after administration. The collected blood samples were placed in EDTA-K2 anticoagulation blood collection tubes. The collected whole blood was placed on ice and centrifuged at 6800 g at 2-8° C. for 6 min to separate plasma within 1 h. After the centrifugation, the plasma was transferred to a centrifuge tube to which a plasma stabilizer had been added in advance (plasma:concentrated phosphoric acid=100:0.2; for example, 1 μL of 10% concentrated phosphoric acid was added to 50 μL of plasma). All the animals were subjected to careful clinical observation before administration and at each of the blood collection time points after administration, and the adverse reaction symptoms in the animals were recorded.

[7] = test system: Control strain (Pseudomonas aeruginosa) ATCC 27853; assay: Antibacterial MIC assay (ID-CAMHB), control strain Pseudomonas aeruginosa; type: cell-based; details: ATCC27853, ID-CAMHB, control strain ATCC 27853, read-out: MIC
Experimental: as §1, §2, §3

[8] = both sexes, cynomolgus, iv, 10 mg/kg
[9] = strain FDA-CDC AR-BANK#0063, AMR gene OXA-23, OXA-65, OXA-24, sul2, read-out: MIC
[10] = strain FDA-CDC AR-BANK#0453, AMR gene KPC-3, OmpK35, oqxA, oqxB, SHV-11, TEM-1B
[11] = 10 mg/kg subcutaneous injection
[12] = 100 mg/kg subcutaneous injection

CC(C)(O/N=C(\C(=O)N[C@@H]1C(=O)N2C(C(=O)[O-])=C(C[N+]3(CCCN(CCCNC(=O)c4ccc(O)c(O)c4Cl)C(=O)c4ccc(O)c(O)c4Cl)CCCC3)CS[C@H]12)c1csc(N)n1)C(=O)O [Compound 3]
MIC [1]: 0.0625 µg/mL (≈ 0.0629 µM) | AUC(0-inf) [2, 8]: 166 µg·h/mL | AUC(0-t) [2, 8]: 149 µg·h/mL | clearance [2, 8]: 1 mL/min/kg | half-life [2, 8]: 154 min | Cmax ([2]; both sexes, cynomolgus, iv, 10 mg/kg, read-out: Cmax): 55.2 µg/mL | MRT ([2]; both sexes, cynomolgus, iv, 10 mg/kg, read-out: MRT): 150 min | Vd ([2]; both sexes, cynomolgus, iv, 10 mg/kg, read-out: Vd): 0.223 L/kg | Tmax ([2]; both sexes): 4.8 min | AUC last ([2]; 10 mg/kg): 140.08 µg·h/mL | AUCinf ([2]; 10 mg/kg): 153.20 µg·h/mL | CL ([2]; 10 mg/kg): 1.088 mL/min/kg | Cmax ([2]; 10 mg/kg): 48.60 µg/mL | MRT ([2]; 10 mg/kg): 149 min | Vd ([2]; 10 mg/kg): 0.21311 L/kg | t1/2 ([2]; 10 mg/kg): 136 min | MIC ([3]; strain FDA-CDC AR-BANK#0439, AMR gene aac(6′)-Il, aadA1b, BCR1, IMP-18, OXA-50): 0.125 µg/mL (≈ 0.126 µM) | MIC ([3]; strain FDA-CDC AR-BANK#0441, AMR gene KPC-2, read-out: MIC): 2 µg/mL (≈ 2.01 µM) | MIC ([3]; strain FDA-CDC AR-BANK#0444, AMR gene aac(6′)-Il, dfrB5, OXA-4, tet(G), VIM-2, read-out: MIC): 2 µg/mL (≈ 2.01 µM) | MIC ([3]; strain FDA-CDC AR-BANK#0457, AMR gene aadA6, VIM-2, read-out: MIC): 0.25 µg/mL (≈ 0.252 µM) | MIC ([4]; strain FDA-CDC AR-BANK#0036, AMR gene strB, OXA-65, OXA-24, strA, sul2, read-out: MIC): 0.25 µg/mL (≈ 0.252 µM) | MIC ([4]; strain FDA-CDC AR-BANK#0052, AMR gene OXA-58, OXA-100, sul2): 0.125 µg/mL (≈ 0.126 µM) | MIC [4, 9]: > 32 µg/mL | MIC ([4]; strain FDA-CDC AR-BANK#0070, AMR gene OXA-58, OXA-100, sul2): 0.125 µg/mL (≈ 0.126 µM) | MIC ([4]; strain FDA-CDC AR-BANK#0101, AMR gene strB, OXA-65, OXA-24, strA, sul2, read-out: MIC): 0.5 µg/mL (≈ 0.503 µM) | MIC ([5]; strain FDA-CDC AR-BANK#0361, AMR gene TEM-1, SHV-12, KPC-2): 0.5 µg/mL (≈ 0.503 µM) | MIC ([5]; strain FDA-CDC AR-BANK#0362, AMR gene TEM-1, SHV-11, KPC-2): 0.125 µg/mL (≈ 0.126 µM) | MIC ([5]; strain FDA-CDC AR-BANK#0363, AMR gene TEM-1, SHV-12, KPC-2): 0.125 µg/mL (≈ 0.126 µM) | MIC ([5]; strain FDA-CDC AR-BANK#0438, AMR gene aph(3′)-Ia, dfrA12, KPC-3, OmpK35, oqxA, oqxB, SHV-11): 0.25 µg/mL (≈ 0.252 µM) | MIC [5, 10]: 0.5 µg/mL (≈ 0.503 µM) | AUMC0-inf [6, 11]: 86.9 h · h · ug · mL^−1 | AUMC0-t [6, 11]: 80.3 h · h · ug · mL^−1 | Kel [6, 11]: 1.04 h⁻¹ | MRTPO [6, 11]: 47.4 min | AUMC0-inf [6, 12]: 880.4 h · h · ug · mL^−1 | AUMC0-t [6, 12]: 871.4 h · h · ug · mL^−1 | Kel [6, 12]: 1.64 h⁻¹ | MRTPO [6, 12]: 47.8 min | AUC(0-inf) [6, 11]: 110 µg·h/mL | AUC(0-t) [6, 11]: 109 µg·h/mL | Cmax [6, 11]: 114 µg/mL | Tmax [6, 11]: 15 min | half-life [6, 11]: 39.9 min | AUC(0-inf) [6, 12]: 1100 µg·h/mL | AUC(0-t) [6, 12]: 1100 µg·h/mL | Cmax [6, 12]: 936 µg/mL | Tmax [6, 12]: 30 min | half-life [6, 12]: 25.3 min | MIC [7]: 0.25 µg/mL (≈ 0.252 µM)

CC(C)(O/N=C(\C(=O)N[C@@H]1C(=O)N2C(C(=O)[O-])=C(C[N+]3(CCNC(=O)c4ccc(O)c(O)c4Cl)CCCC3)CS[C@H]12)c1csc(N)n1)C(=O)O [Cefiderocol, reference compound]
Vd ([2]; 10 mg/kg): 0.37963 L/kg | MIC [4, 9]: 4 µg/mL (≈ 5.32 µM) | MIC [5, 10]: 1 µg/mL (≈ 1.33 µM) | AUMC0-inf [6, 12]: 150.7 h · h · ug · mL^−1 | AUMC0-t [6, 12]: 150.3 h · h · ug · mL^−1 | Kel [6, 12]: 1.45 h⁻¹ | MRTPO [6, 12]: 34.6 min | AUC(0-inf) [6, 12]: 261 µg·h/mL | AUC(0-t) [6, 12]: 261 µg·h/mL | Cmax [6, 12]: 363 µg/mL | Tmax [6, 12]: 15 min | half-life [6, 12]: 28.6 min
